# Key:
# [1] = test system: L6-myotubes; test: 3H-2-deoxy-glucose uptake in L6-myotubes; type: cell-based; settings: for glucose uptake, isoprenaline versus BRL 37344: 2 h stimulation with 10^-5 M, n=7, FIG. 9
# Protocol: Glucose uptake was measured in L6-myotubes grown in 12-well plates using ^3H-2-dexoy-glucose as previously described (Nevzorova et al. 2002) with minor modifications. L6-cells were differentiated for 7-8 days before the experiment, serum-starved over night in media containing 0.5% fatty-acid free BSA and stimulated with BRL 373 44 or Isoprenaline totally 2 h, unless otherwise stated. SQ 22 536 or ICI 118 551 were added 30 min before stimulation. 25 min before the end of the experiment, cells were washed twice in warm PBS and kept in glucose-free DMEM together with the different drugs for 10 min before 50 nM ^3H-2-deoxy-glucose was added for additional 6 minutes. The reaction was terminated by washing the cells in ice-cold PBS three times. Cells were lysed in 0.2 NaOH for 1 h in 60° C. and the radioactivity detected by liquid scintillation (scintillation buffer Emulsifier Safe, Perking Elmer and analysis is a Tri-Carb® 2800TR from Perkin Elmer).
# [2] = test system: L6 skeletal muscle cells; test: cAMP levels in L6 skeletal muscle cells (alpha-screen cAMP kit); type: cell-based
# Protocol: L6 myocytes were obtained from ATCC and grown in Dulbecco's Modified Eagle's Medium (DMEM) containing 4.5 g/L glucose supplemented with 10% fetal bovine serum (FBS), 2 mM L-Glutamine, 50 U/ml penicillin, 50 μg/ml streptomycin and 10 mM HEPES. Cells were plated in 12- or 96-well plates and after reaching confluence differentiation was induces by differentiation media containing 2% FBS.
# L6-cells were differentiated in 96-well plates and after 7 days of differentiation cells serum-starved and treated with drugs in stimulation buffer (HBSS supplemented with 1% BSA and 5 mM HEPES, pH 7.4). To end the reaction cells were harvested in ice-cold lysis buffer (0.3% Tween-20, 5 mM Hepes, 1% BSA and 1 mM IBMX, pH 7.4). Levels of cAMP were detected by an alpha-screen cAMP kit (6760625R from Perkin Elmer) according to the manufactures instruction.
# The cAMP was measured in L6-myotubes after 2 h stimulation. The results (FIG. 3) indicate that BRL 37344 cannot be considered a general beta2-adrenergic receptor agonist (or beta1-adrenergic receptor) stimulating cAMP in skeletal muscle cells.
# [3] = test system: L6-myotubes; test: western blot for detection of phospho-CREB in L6-myotubes; type: cell-based; settings: 10^-5 M, 10 to 120 min, FIGS. 5 and 6
# Protocol: L6-myotubes were harvested and subjected to western blot for detection of phospho-CREB. For measuring protein phosphorylation of a target downstream cAMP cells were treated as indicated and harvested in pre-warmed SDS sample buffer containing 50 mM dithiothreitol, sonicated and boiled for 5 min. Proteins were separated on a 12% polyacrylamide gel for 3 h at 80 V. The proteins were transferred onto Hypbond-P PVDF membrane (GE Healthcare) which was blocked in milk for 1 h and probed with primary antibodies. All antibodies were purchased from Cell Signaling and diluted 1:1000: Primary antibodies were detected using a secondary antibody (horseradish peroxidase-linked anti-rabbit IgG, #7074) diluted 1:2000 and enhanced chemiluminescence (ECL plus, GE Healthcare). Photos were taken in a CCD camera (Fuji Las 1000) and quantification performed in software ImageJ.
# Lanes 1 and 7=basal, 2-6=isoprenaline treatment for 10, 15, 30, 60 and 120 min, 8-12=BRL 37344 treatment for 10, 15, 30, 60 and 120 min. […] Quantification of n=3 blots (FIG. 6).
# [4] = test system: GLUT4; test: GLUT4 translocation to the plasma membrane in L6 cells (immunofluorescence); type: cell-based; settings: 2 h stimulation, FIGS. 12 and 13
# Protocol: L6 cells were grown in 8-well culture chamber slides (BD Biosciences, Franklin Lakes, BJ), serum starved overnight and stimulated with insulin, isoproterenol or BRL 37344 for 2 h. Cells were fixed for 5 min with 4% formaldehyde in PBS, quenched with 50 mM glycine in PBS for 10 min, blocked with 5% BSA in PBS and incubated with primary antibodies (diluted in 1.5% BSA in PBS) overnight at 4° C. As primary antibody anti GLUT4 binding to extracellular parts of GLUT4 (Santa Cruz Biotechnology, sc-1606, dilution 1:125) was used. Cells were then washed with PBS and incubated with Alexa Fluor® 488-conjugated goat anti-rabbit IgG (1:500 dilution, 1.5% BSA in PBS) for 1 h. Slides were mounted with ProLong® Gold antifade reagent (Invitrogen) and fluorescence micrographs were obtained (FIG. 12).
# [5] = test system: β3-KO mice; test: in vivo 3H-2-deoxy-glucose uptake in soleus and gastrocnemius muscle; settings: 1 mg/kg i.p., CPM per gram tissue divided by CPM per gram blood, FIG. 14
# Protocol: β3-KO mice on FVB background, 12-16 weeks old, were anaesthetised with pentobarbital (67 mg/kg). BRL 37344 (1 mg/kg) or saline was injected i.p. about 10 min after induction of anaesthesia. After 20 min ^3H-2-deoxy-glucose (16 nM/130 μCi per kg of mouse) diluted in 100 μl saline was injected. Mice were killed 1 h after injection of 2-deoxy-glucose. Blood sample was taken from heart and soleus and gastrocnemius were dissected out. Tissues were weighed and dissolved in 0.5 M NaOH in 60° C. Radioactivity was detected as described above. The results are expressed as CPM per gram tissue divided by CPM per gram blood.
# [6] = test system: β3-KO mice; test: blood glucose over time (glucose tolerance); type: in vivo; settings: 1 mg per kg i.p., FIG. 15
# Protocol: FIG. 15 is a graph showing variation over time of blood glucose (in mM) in β3-KO mice after ip injection of either saline or BRL 37344 (1 mg per kg). P<0.01 for the effect of BRL 37344 with two-way ANOVA.
smiles,measurement,setting,value
"CC(C)NCC(O)c1ccc(O)c(O)c1 (racemic) [isoprenaline, (RS)-4-[1-hydroxy-2-(isopropylamino)ethyl]benzene-1,2-diol]","glucose uptake, isoprenaline versus BRL 37344",[1],no significant difference between the responses
"C[C@H](Cc1ccc(OCC(=O)O)cc1)NC[C@H](O)c1cccc(Cl)c1 (relative stereo) [BRL 37344, (±)-(R*,R*)-[4-[2-[[2-(3-chlorophenyl)-2-hydroxyethyl]amino]propyl]phenoxy]acetic acid]",cAMP levels at different concentrations,"[2]; L6-myotubes, 2 h stimulation, FIG. 3",no or little impact on cAMP levels
same,cAMP at time points examined,"[2]; L6 skeletal muscle cells, 0 min to 25 min of contact, FIG. 2",At no time point examined did BRL 37344 increase cAMP
same,cAMP over basal,"[2]; L6 skeletal muscle cells, FIG. 1",did not significantly increase cAMP over basal
same,phospho-CREB (downstream target of cAMP),[3],not affected
same,"glucose uptake, isoprenaline versus BRL 37344",[1],no significant difference between the responses
same,BRL 37344 stimulated glucose uptake with beta2 inhibition,"[1]; BRL 37344 10 μM, 2 h, in presence of 10 μM ICI 118551, FIG. 11",fully inhibits
same,glucose uptake at different concentrations,"[1]; L6-myotubes, 2 h stimulation, n=7, FIG. 8",increases glucose uptake
same,glucose uptake at different time points,"[1]; L6-myotubes, BRL 37344 10 μM, FIG. 7",increases during time
same,BRL 37344 stimulated glucose uptake with inhibition of adenylyl cyclase,"[1]; SQ 22536 500 μM added 30 min before stimulation, FIG. 10",does not decrease
same,GLUT4 translocation to the plasma membrane,[4],increase of GLUT4 translocation to the plasma membrane
same,glucose uptake in both skeletal muscles relative to control mice,[5],2-3 times higher
same,maximum blood glucose compared to control mice,[6],substantially reduced

# From patent US9891212B2, “Screening method, a kit, a method of treatment and a compound for use in a method of treatment” (ATROGI AB, priority 2013, dated 2018)
